Source: patent US12486269B2 (Aconcagua Bio, Inc., priority 2024, dated 2025)

Tests used:
[1] = molecular target: T1, human calcitonin receptor (CTR) (Homo sapiens, UniProt P30988); assay: Calcitonin Receptor (CTR) cAMP Assay; format: cell-based; conditions: COS7-human CTR Clone #2 stable cell line, cAMP dynamic 2 kit, 30 min; read-out: Calcitonin Receptor cAMP Stimulation Activity: EC50
T1 construct: expressed in transfected cells; host or cells: COS-7 (COS7-human CTR Clone #2)
T1 sequence (P30988 25-474): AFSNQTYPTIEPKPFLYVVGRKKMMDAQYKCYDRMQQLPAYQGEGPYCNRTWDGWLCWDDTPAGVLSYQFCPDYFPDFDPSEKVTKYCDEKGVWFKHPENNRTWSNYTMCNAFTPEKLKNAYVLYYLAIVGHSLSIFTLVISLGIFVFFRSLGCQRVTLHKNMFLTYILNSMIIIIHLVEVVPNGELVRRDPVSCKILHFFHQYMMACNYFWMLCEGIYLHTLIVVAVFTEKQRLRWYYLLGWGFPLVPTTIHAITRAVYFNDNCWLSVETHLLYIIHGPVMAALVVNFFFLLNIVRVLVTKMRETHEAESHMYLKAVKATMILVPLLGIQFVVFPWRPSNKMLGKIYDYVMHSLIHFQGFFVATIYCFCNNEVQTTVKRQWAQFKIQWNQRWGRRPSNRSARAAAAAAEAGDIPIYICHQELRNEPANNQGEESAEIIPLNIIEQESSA
Method in brief: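 COS-7 cells stably expressing human CTR (2000 cells/well) were incubated 30 min at 37 °C with 4-fold serially diluted compound in HBSS/20 mM HEPES/0.5 mM IBMX/0.1% casein. cAMP was detected by HTRF (665/615 nm) after 1 h at RT. % activity was normalised to vehicle and positive controls.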

[2] = molecular target: T2, COS-7/AMY3 (human calcitonin receptor (CTR) and RAMP3) (Homo sapiens, UniProt O60896+P30988); assay: Amylin Receptor cAMP Assay II; format: cell-based; conditions: values marked **: Amylin Receptor cAMP Assay II; COS-7/AMY3 cells, cAMP dynamic 2 kit, 30 min; read-out: Amylin Receptor cAMP Stimulation Activity: EC50
T2 construct: expressed in transfected cells; host or cells: COS-7
Method in brief: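 COS-7 cells stably co-expressing human CTR and RAMP3 (AMY3), 2000 cells/well in HBSS with 20 mM HEPES, 0.5 mM IBMX, 0.1% casein, stimulated with compound for 30 min at 37 °C. cAMP measured by HTRF (665/615 nm), activity normalized between vehicle and maximal control.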

T2 sequence (O60896 24-148, one chain of several): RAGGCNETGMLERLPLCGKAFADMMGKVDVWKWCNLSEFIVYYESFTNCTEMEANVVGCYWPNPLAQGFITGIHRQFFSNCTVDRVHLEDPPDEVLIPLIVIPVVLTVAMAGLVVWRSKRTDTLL

SMILES	EC50 [1]	EC50 [2]
COc1cccc2c1CC[C@H]2Nc1nccc2cc(-c3c4c(nc(CCc5ccc(F)cc5)c3-c3n[nH]c(=O)o3)[C@@H]3COCCN3C4=O)sc12 [Compound 174, (R)-2-(4-fluorophenethyl)-4-(7-(((R)-4-methoxy-2,3-dihydro-1H-inden-1-yl)amino)thieno[2,3-c]pyridin-2-yl)-3-(5-oxo-4,5-dihydro-1,3,4-oxadiazol-2-yl)-7,8,10,10a-tetrahydro-5H-pyrido[2′,3′:3,4]pyrrolo[2,1-c][1,4]oxazin-5-one]	0.347 nM	31.9 nM
COc1cccc2c1CC[C@H]2Nc1nccc2cc(-c3c(-c4n[nH]c(=O)o4)c(CCc4ccc(F)cc4)nc4c3S(=O)(=O)N3CCC[C@@H]43)sc12 [Compound 175, 5-((S)-2-(4-fluorophenethyl)-4-(7-(((R)-4-methoxy-2,3-dihydro-1H-inden-1-yl)amino)thieno[2,3-c]pyridin-2-yl)-5,5-dioxido-7,8,9,9a-tetrahydropyrrolo[1′,2′:2,3]isothiazolo[4,5-b]pyridin-3-yl)-1,3,4-oxadiazol-2(3H)-one]	0.741 nM	26.8 nM
N#Cc1ccc(Cn2c(=O)oc3cc(-c4c5c(nc(CCc6ccc(F)cc6)c4-c4n[nH]c(=O)o4)[C@@H]4CCCN4C5=O)ccc32)nc1 [Compound 176, 6-[[6-[(9aS)-2-[2-(4-fluorophenyl)ethyl]-5-oxo-3-(2-oxo-3H-1,3,4-oxadiazol-5-yl)-7,8,9,9a-tetrahydropyrido[2,3-a]pyrrolizin-4-yl]-2-oxo-1,3-benzoxazol-3-yl]methyl]pyridine-3-carbonitrile]	0.557 nM	10.7 nM
O=C1c2c(nc(CCc3ccc(F)cc3)c(-c3n[nH]c(=O)o3)c2-c2cnc3c(ccn3Cc3ccc(F)cn3)c2)[C@@H]2CCCN12 [Compound 177, (S)-5-(2-(4-fluorophenethyl)-4-(1-((5-fluoropyridin-2-yl)methyl)-1H-pyrrolo[2,3-b]pyridin-5-yl)-5-oxo-7,8,9,9a-tetrahydro-5H-pyrido[2,3-a]pyrrolizin-3-yl)-1,3,4-oxadiazol-2(3H)-one]	39.4 nM	1810 nM
COc1cccc2c1CC[C@H]2Nc1nccc2cc(-c3c4c(nc(CCc5ccc(F)cc5)c3-c3n[nH]c(=O)o3)[C@]3(C)CCCN3C4=O)sc12 [Compound 178, 5-((S)-2-(4-fluorophenethyl)-4-(7-(((R)-4-methoxy-2,3-dihydro-1H-inden-1-yl)amino)thieno[2,3-c]pyridin-2-yl)-9a-methyl-5-oxo-7,8,9,9a-tetrahydro-5H-pyrido[2,3-a]pyrrolizin-3-yl)-1,3,4-oxadiazol-2(3H)-one]	3.19 nM	203 nM
COc1cccc2c1CC[C@H]2Nc1nccc2cc(-c3c4c(nc(CCc5ccc(F)cc5)c3-c3n[nH]c(=O)o3)[C@]3(C)COCCN3C4=O)sc12 [Compound 179, (R)-2-(4-fluorophenethyl)-4-(7-(((R)-4-methoxy-2,3-dihydro-1H-inden-1-yl)amino)thieno[2,3-c]pyridin-2-yl)-10a-methyl-3-(5-oxo-4,5-dihydro-1,3,4-oxadiazol-2-yl)-7,8,10,10a-tetrahydro-5H-pyrido[2′,3′:3,4]pyrrolo[2,1-c][1,4]oxazin-5-one]	1.25 nM	34.2 nM
COc1cccc2c1CC[C@H]2Nc1nccc2cc(-c3c4c(nc(CCc5ccc(F)cc5)c3-c3n[nH]c(=O)o3)C35CC3CCN5C4=O)sc12 (stereo partly drawn) [Compound 180, 5-(8-(4-fluorophenethyl)-6-(7-(((R)-4-methoxy-2,3-dihydro-1H-inden-1-yl)amino)thieno[2,3-c]pyridin-2-yl)-5-oxo-1,1a,2,3-tetrahydro-5H-cyclopropa[g]pyrido[2,3-a]pyrrolizin-7-yl)-1,3,4-oxadiazol-2(3H)-one]	0.559 nM	12.7 nM
COc1cccc2c1CC[C@H]2Nc1nccc2cc(-c3c(-c4n[nH]c(=O)o4)c(CCc4ccc(F)cc4)nc4c3C(=O)N3C[C@H]5C[C@@]43C5)sc12 [Compound 181, (R)-5-(2-(4-fluorophenethyl)-4-(7-((4-methoxy-2,3-dihydro-1H-inden-1-yl)amino)thieno[2,3-c]pyridin-2-yl)-5-oxo-8,9-dihydro-5H,7H-8,9a-methanopyrido[2,3-a]pyrrolizin-3-yl)-1,3,4-oxadiazol-2(3H)-one]	0.105 nM	3.5 nM
COc1cccc2c1CC[C@H]2Nc1nccc2cc(-c3c4c(nc(CCc5ccc(F)cc5)c3-c3n[nH]c(=O)o3)[C@H]3N(CCC3(C)C)C4=O)sc12 [Compound 182, 5-((S)-2-(4-fluorophenethyl)-4-(7-(((R)-4-methoxy-2,3-dihydro-1H-inden-1-yl)amino)thieno[2,3-c]pyridin-2-yl)-9,9-dimethyl-5-oxo-7,8,9,9a-tetrahydro-5H-pyrido[2,3-a]pyrrolizin-3-yl)-1,3,4-oxadiazol-2(3H)-one]	7.85 nM	52.9 nM
O=C1c2c(nc(CCc3ccc(F)cc3)c(-c3n[nH]c(=O)o3)c2-c2cc3ccnc(N[C@@H]4CCc5c(F)cc(F)cc54)c3s2)[C@@H]2CCCN12 [Compound 183, 5-((S)-4-(7-(((R)-4,6-difluoro-2,3-dihydro-1H-inden-1-yl)amino)thieno[2,3-c]pyridin-2-yl)-2-(4-fluorophenethyl)-5-oxo-7,8,9,9a-tetrahydro-5H-pyrido[2,3-a]pyrrolizin-3-yl)-1,3,4-oxadiazol-2(3H)-one]	0.143 nM	4.23 nM
O=C1c2c(nc(CCc3ccc(F)cc3)c(-c3n[nH]c(=O)o3)c2-c2cc3ccnc(N[C@@H]4CCc5cc(F)ccc54)c3s2)[C@@H]2CCCN12 [Compound 184, 5-((S)-4-(7-(((R)-5-fluoro-2,3-dihydro-1H-inden-1-yl)amino)thieno[2,3-c]pyridin-2-yl)-2-(4-fluorophenethyl)-5-oxo-7,8,9,9a-tetrahydro-5H-pyrido[2,3-a]pyrrolizin-3-yl)-1,3,4-oxadiazol-2(3H)-one]	0.247 nM	3.59 nM
COc1cccc2c1CC[C@H]2Nc1nccc2cc(-c3c4c(nc(C(C)C)c3-c3n[nH]c(=O)o3)[C@@H]3CCCN3C4=O)sc12 [Compound 185, 5-((S)-2-isopropyl-4-(7-(((R)-4-methoxy-2,3-dihydro-1H-inden-1-yl)amino)thieno[2,3-c]pyridin-2-yl)-5-oxo-7,8,9,9a-tetrahydro-5H-pyrido[2,3-a]pyrrolizin-3-yl)-1,3,4-oxadiazol-2(3H)-one]	15.2 nM	231 nM
CC1(C)Oc2cc(-c3c4c(nc(CCc5ccc(F)cc5)c3-c3n[nH]c(=O)o3)[C@@H]3CCCN3C4=O)ccc2N(Cc2ccc(F)cn2)C1=O [Compound 186, (S)-7-(2-(4-fluorophenethyl)-5-oxo-3-(5-oxo-4,5-dihydro-1,3,4-oxadiazol-2-yl)-7,8,9,9a-tetrahydro-5H-pyrido[2,3-a]pyrrolizin-4-yl)-4-((5-fluoropyridin-2-yl)methyl)-2,2-dimethyl-2H-benzo[b][1,4]oxazin-3(4H)-one]	0.682 nM	37.2 nM
COc1c(F)ccc2c1CC[C@H]2Nc1nc(C)cc2cc(-c3c4c(nc(CCc5ccc(F)cc5)c3-c3n[nH]c(=O)o3)[C@@H]3CCCN3C4=O)sc12 [Compound 187, 5-((S)-4-(7-(((R)-5-fluoro-4-methoxy-2,3-dihydro-1H-inden-1-yl)amino)-5-methylthieno[2,3-c]pyridin-2-yl)-2-(4-fluorophenethyl)-5-oxo-7,8,9,9a-tetrahydro-5H-pyrido[2,3-a]pyrrolizin-3-yl)-1,3,4-oxadiazol-2(3H)-one]	0.0484 nM	0.608 nM
